{"source": "patent US9845335B2", "about": "“Sofosbuvir in crystalline form and process for its preparation” (HC-PHARMA AG, priority 2014, dated 2017)", "format_in_all_cases": "physicochemical", "key": {"[1]": {"test": "Stability and hygroscopicity of the crystalline form", "conditions": "statement in words, no data"}, "[2]": {"test": "Powder properties of the crystalline form (bulk and tapped density, compressibility, Hausner ratio)"}, "[3]": {"test": "Particle size distribution (PSD)"}, "[4]": {"conditions": "product of Example 1 (from isobutyl methyl ketone)"}}, "data": [{"smiles": "CC(C)OC(=O)[C@H](C)N[P@](=O)(OC[C@H]1O[C@@H](n2ccc(=O)[nH]c2=O)[C@](C)(F)[C@@H]1O)Oc1ccccc1", "note": "[Sofosbuvir Form α]", "values": [{"measurement": "Hygroscopicity", "setting": "[1]", "result": "not hygroscopic"}, {"measurement": "Stability of the crystalline form", "setting": "[1]", "result": "stable"}, {"measurement": "Bulk Density", "setting": "[2]", "result": 0.22, "unit": "g/mL"}, {"measurement": "Compressibility index", "setting": "[2]", "result": 24.4}, {"measurement": "Hausner ratio", "setting": "[2]", "result": 1.32}, {"measurement": "Tapped Density", "setting": "[2]", "result": 0.29, "unit": "g/mL"}, {"measurement": "PSD: size of the 90% of the particles", "setting": "[3]; general characterisation of the form", "result": "10 to 50", "unit": "μm"}, {"measurement": "PSD d(0.1)", "setting": "[3]; [4]", "result": 1.831, "unit": "μm"}, {"measurement": "PSD d(0.5)", "setting": "[3]; [4]", "result": 5.263, "unit": "μm"}, {"measurement": "PSD d(0.9)", "setting": "[3]; [4]", "result": 20.369, "unit": "μm"}]}]}
